Laboratory results from patent publication US20150148311A1, “NON-SYSTEMIC TGR5 AGONISTS” (Ardelyx, Inc., priority 2011, published 2015).

What was measured:
[1] = target: T1, human TGR5 (Homo sapiens, UniProt Q8TDU6); assay: Cell-based TGR5 assay, HEK293 cells stably expressing human TGR5, cAMP by HTRF; conditions: HEK293 cells stably expressing human TGR5, 30 min at 37 C, 0.05 nM to 10 μM, read-out: pEC50 Human TGR5 (converted)
T1 construct: expressed in transfected cells
T1 sequence (Q8TDU6 1-330): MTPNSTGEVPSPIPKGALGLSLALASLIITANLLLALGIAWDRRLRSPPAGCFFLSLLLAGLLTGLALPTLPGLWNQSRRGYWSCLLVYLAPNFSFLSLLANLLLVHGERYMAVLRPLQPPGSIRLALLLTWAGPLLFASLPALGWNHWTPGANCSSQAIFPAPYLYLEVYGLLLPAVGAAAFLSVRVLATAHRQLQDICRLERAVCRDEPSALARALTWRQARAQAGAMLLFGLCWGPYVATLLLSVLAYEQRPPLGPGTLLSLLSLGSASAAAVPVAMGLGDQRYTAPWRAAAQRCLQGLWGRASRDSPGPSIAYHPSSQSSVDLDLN
Method: (§1) Two primary cell based screens were performed. The first utilized HEK293 cells stably transfected to heterologously express human TGR5. The second screen used the human caecum carcinoma cell line NCI-H716 which endogenously expresses human TGR5. In both assays, cells are treated with candidate TGR5 activators and assessed for the increased intercellular levels of cAMP.
HEK293 cells were transfected with a vector that expresses a gene encoding human TGR5, and a stable cell line was isolated using drug selection following standard techniques. Cells were grown overnight at 37° C./5% CO2 prior to assay.
(§2) TGR5-mediated cAMP generation was measured using a homogeneous time resolved fluorescence (HTRF) detection method (Cisbio). Test compounds were dissolved in DMSO to a final concentration of 10 mM. Serial 3-fold dilutions of the stock solution were made in DMSO, and these solutions were diluted 100-fold into Hanks Balanced Salt Solution supplemented with 10 mM HEPES pH 7.4 and 0.5 mM isobutyl methylxanthine (IBMX). Prior to assay, culture medium was replaced with fresh medium, and test compounds diluted in HBSS/HEPES/IBMX were added to the cells and incubated at 37° C. for 30 minutes.
(§3) Following incubation with test compounds, cAMP was detected through the successive addition of cAMP labeled with the modified allophyocyanin dye d2 (cAMP-d2) and cryptate-labeled anti-cAMP in lysis buffer, and reading HTRF per the manufacturer's instructions. A standard curve was used to convert the raw HTRF data into [cAMP].

[2] = target: T2, endogenously expressed TGR5 in NCI H716 (Homo sapiens, UniProt Q8TDU6); assay: Cell-based TGR5 assay, NCI-H716 cells endogenously expressing human TGR5, cAMP by HTRF; conditions: 30 min at 37 C, 22 nM to 50 μM, read-out: pEC50 endogenously expressed TGR5 in NCI H716 (converted)
T2 construct: human caecum carcinoma cell line NCI-H716 which endogenously expresses human TGR5; endogenous in cells; host or cells: NCI-H716
T2 sequence (Q8TDU6 1-330): T1 sequence (Q8TDU6 1-330)
Method: as §1, with “cAMP. […]” for “cAMP.”
as §2, §3

Compound	EC50 [1] [nM]	EC50 [2] [nM]
O=C(N1CCN(C2CC2)c2ccccc21)C1(OCc2cc(Cl)ccc2Cl)CNC1 [Example 50, (4-cyclopropyl-3,4-dihydroquinoxalin-1(2H)-yl)(3-(2,5-dichlorobenzyloxyl)azetidin-3-yl)methanone]	126 to 1000	1260 to 50100
CN1CC(OCc2cc(Cl)ccc2Cl)(C(=O)N2CCN(C3CC3)c3ccccc32)C1 [Example 51, (4-cyclopropyl-3,4-dihydroquinoxalin-1(2H)-yl)(3-(2,5-dichlorobenzyloxy)-1-methylazetidin-3-yl)methanone]	126 to 1000	1260 to 50100
CCN1CC(OCc2cc(Cl)ccc2Cl)(C(=O)N2CCN(C3CC3)c3ccccc32)C1 [Example 52, (4-cyclopropyl-3,4-dihydroquinoxalin-1(2H)-yl)(3-(2,5-dichlorobenzyloxy)-1-ethylazetidin-3-yl)methanone]	126 to 1000	1260 to 50100
CC(C)N1CC(OCc2cc(Cl)ccc2Cl)(C(=O)N2CCN(C3CC3)c3ccccc32)C1 [Example 53, (4-cyclopropyl-3,4-dihydroquinoxalin-1(2H)-yl)(3-(2,5-dichlorobenzyloxy)-1-isopropylazetidin-3-yl)methanone]	1260 to 50100	1260 to 50100
CC(=O)N1CC(OCc2cc(Cl)ccc2Cl)(C(=O)N2CCN(C3CC3)c3ccccc32)C1 [Example 54, 1-(3-(4-cyclopropyl-1,2,3,4-tetrahydroquinoxaline-1-carbonyl)-3-(2,5-dichlorobenzyloxyl)azetidin-1-yl)ethanone]	126 to 1000	1260 to 50100
CS(=O)(=O)N1CC(OCc2cc(Cl)ccc2Cl)(C(=O)N2CCN(C3CC3)c3ccccc32)C1 [Example 55, (4-cyclopropyl-3,4-dihydroquinoxalin-1(2H)-yl)(3-(2,5-dichlorobenzyloxy)-1-(methylsulfonyl)azetidin-3-yl)methanone]	126 to 1000	1260 to 50100
Cc1cccc(CC2CCCN2C(=O)N2CCN(C3CC3)c3ccccc32)c1 (stereo not shown) [Example 58]	1260 to 50100	1260 to 50100
O=C(O)CCc1ccc(Cl)c(CNC2(C(=O)N3CCN(C4CC4)c4ccccc43)CC2)c1 [Example 59, 3-(4-chloro-3-(((1-(4-cyclopropyl-1,2,3,4-tetrahydroquinoxaline-1-carbonyl)cyclopropyl)amino)methyl)phenyl)propanoic acid]	126 to 1000	1260 to 50100
CN(C[C@H](O)[C@@H](O)[C@H](O)[C@H](O)CO)C(=O)CCc1ccc(Cl)c(CNC2(C(=O)N3CCN(C4CC4)c4ccccc43)CC2)c1 [Example 60, 3-(4-chloro-3-(((1-(4-cyclopropyl-1,2,3,4-tetrahydroquinoxaline-1-carbonyl)cyclopropyl)amino)methyl)phenyl)-N-methyl-N-((2S,3R,4R,5R)-2,3,4,5,6-pentahydroxyhexyl)propanamide]	126 to 1000	126 to 1000
CN(C(=O)C1(OCc2cc(Cl)ccc2Cl)CC1)c1ccccc1OC1CCC1 [Example 72, N-(2-cyclobutoxyphenyl)-1-(2,5-dichlorobenzyloxy)-N-methylcyclopropanecarboxamide]	< 100	< 100

Other lines, results leading:

EC50 [1] [nM]	EC50 [2] [nM]	Compound
1260 to 50100	1260 to 50100	NCCCc1ccc(Cl)c(CNC2(C(=O)N3CCN(C4CC4)c4ccccc43)CC2)c1 [Example 68, (1-((5-(3-aminopropyl)-2-chlorobenzyl)amino)cyclopropyl)(4-cyclopropyl-3,4-dihydroquinoxalin-1(2H)-yl)methanone]
1260 to 50100	1260 to 50100	CN(C[C@H](O)[C@@H](O)[C@H](O)[C@H](O)CO)C(=O)NCCCc1ccc(Cl)c(CNC2(C(=O)N3CCN(C4CC4)c4ccccc43)CC2)c1 [Example 69, 3-(3-(4-chloro-3-(((1-(4-cyclopropyl-1,2,3,4-tetrahydroquinoxaline-1-carbonyl)cyclopropyl)amino)methyl)phenyl)propyl)-1-methyl-1-((2S,3R,4R,5R)-2,3,4,5,6-pentahydroxyhexyl)urea]
1260 to 50100	1260 to 50100	O=C(CCc1ccc(Cl)c(CNC2(C(=O)N3CCN(C4CC4)c4ccccc43)CC2)c1)NC[C@H](O)[C@@H](O)[C@H](O)[C@H](O)CO [Example 70, 3-(4-chloro-3-(((1-(4-cyclopropyl-1,2,3,4-tetrahydroquinoxaline-1-carbonyl)cyclopropyl)amino)methyl)phenyl)-N-((2S,3R,4R,5R)-2,3,4,5,6-pentahydroxyhexyl)propanamide]
126 to 1000	126 to 1000	CN(C[C@H](O)[C@@H](O)[C@@H](O)[C@H](O)CO)C(=O)CCc1ccc(Cl)c(CNC2(C(=O)N3CCN(C4CC4)c4ccccc43)CC2)c1 [Example 71, 3-(4-chloro-3-(((1-(4-cyclopropyl-1,2,3,4-tetrahydroquinoxaline-1-carbonyl)cyclopropyl)amino)methyl)phenyl)-N-methyl-N-((2S,3R,4S,5R)-2,3,4,5,6-pentahydroxyhexyl)propanamide]
126 to 1000	> 50100	O=C([C@@H]1CCCN1Cc1cc(Cl)cc(OC(F)(F)F)c1)N1CCN(C2CC2)c2ccccc21 [Example 74, 1-[[(2S)-1-[[3-chloro-5-(trifluoromethoxy)phenyl]methyl]-pyrrolidin-2-yl]carbonyl]-4-cyclopropyl-1,2,3,4-tetrahydroquinoxaline]
126 to 1000	1260 to 50100	O=C(N1CCN(C2CC2)c2ccccc21)C1(OCc2cc(Cl)ccc2Cl)CCOCC1 [Example 79, 1-cyclopropyl-4-([4-[(2,5-dichlorophenyl)methoxy]oxan-4-yl]carbonyl)-1,2,3,4-tetrahydroquinoxaline]
< 100	126 to 1000	O=C([C@@H]1CCCN1Cc1cc(C(F)(F)F)ccc1Cl)N1CCN(C2CC2)c2ccccc21 [Example 84, 1-[[(2S)-1-[[2-chloro-5-(trifluoromethyl)phenyl]methyl]pyrrolidin-2-yl]carbonyl]-4-cyclopropyl-1,2,3,4-tetrahydroquinoxaline]
> 10000	> 50100	O=C(N1CCCc2ncccc21)C1(OCc2cc(Cl)ccc2Cl)CC1 [Example 86, 1-([1-[(2,5-dichlorophenyl)methoxy]cyclopropyl]carbonyl)-1,2,3,4-tetrahydro-1,5-naphthyridine]
126 to 1000	1260 to 50100	COc1cc(Cl)c(CN2CCC[C@H]2C(=O)N2CCN(C3CC3)c3ccccc32)cc1Cl [Example 89, (S)-(4-cyclopropyl-3,4-dihydroquinoxalin-1(2H)-yl)(1-(2,5-dichloro-4-methoxybenzyl)pyrrolidin-2-yl)methanone]
< 100	126 to 1000	O=C(N1CCN(C2CC2)c2ccccc21)C1(NCc2cc(Cl)ccc2Cl)COC1 [Example 90, (4-cyclopropyl-3,4-dihydroquinoxalin-1(2H)-yl)(3-(2,5-dichlorobenzylamino)oxetan-3-yl)methanone]
126 to 1000	126 to 1000	CN(C[C@H](O)[C@@H](O)[C@H](O)[C@H](O)CO)C(=O)CCc1cc(Cl)c(CNC2(C(=O)N3CCN(C4CC4)c4ccccc43)CC2)cc1Cl [Example 91, 3-(2,5-dichloro-4-((1-(4-cyclopropyl-1,2,3,4-tetrahydroquinoxaline-1-carbonyl)cyclopropylamino)methyl)phenyl)-N-methyl-N-((2S,3R,4R,5R)-2,3,4,5,6-pentahydroxyhexyl)propanamide]
1260 to 50100	1260 to 50100	NCCCc1cc(Cl)c(CNC2(C(=O)N3CCN(C4CC4)c4ccccc43)CC2)cc1Cl [Example 92, (1-(4-(3-aminopropyl)-2,5-dichlorobenzylamino)cyclopropyl)(4-cyclopropyl-3,4-dihydroquinoxalin-1(2H)-yl)methanone]
126 to 1000	126 to 1000	CN(C[C@H](O)[C@@H](O)[C@H](O)[C@H](O)CO)C(=O)NCCCc1cc(Cl)c(CNC2(C(=O)N3CCN(C4CC4)c4ccccc43)CC2)cc1Cl [Example 93, 3-(3-(2,5-dichloro-4-((1-(4-cyclopropyl-1,2,3,4-tetrahydroquinoxaline-1-carbonyl)cyclopropylamino)methyl)phenyl)propyl)-1-methyl-1-((2S,3R,4R,5R)-2,3,4,5,6-pentahydroxyhexyl)urea]
